Results reported in patent US20190054096A1, “METHODS FOR A[…] VIRULENCE” (priority 2015, published 2019).
pIC50: −log10 of the molar value. Entries after “also recorded” stand apart in the source; their conditions may differ.

What was measured:
[1] = test system: P. falciparum parasite line, 3D7; assay: microbe, parasite or virus in culture; format: cell-based, Plasmodium falciparum; details: P. falciparum 3D7 blood-stages, 0.1% initial parasitemia
Description: FIG. 9 exemplifies a dose-dependent effect of CR-mimetic compounds on human P. falciparum blood-stages. Synchronized cultures were set at 0.1% initial parasitemia, treated with the various compounds and analysed by flow cytometry after SYBR Green labelling of parasite DNA at 72 hours or 96 hours post-treatment. Data (mean±sem) was […] to the untreated control on each experiment (3-5 independent experiments/compound). IC50 values were determined by GraphPad. Prism using non-linear regression variable slope (normalized) analysis. […] Data for rsv and SRT1720 was collected at 72 hours post-treatment, and 96 hours for all the other compounds.
Example 7. Dose-dependent effect of CR-mimetic compounds on human P. falciparum blood-stages. Synchronized cultures of the P. falciparum parasite line, 3D7, were set at 0.1% initial parasitemia, treated with the various compounds and analysed by flow cytometry after SYBR Green labelling of parasite DNA at 72 hours or 96 hours post-treatment. […] Data for rsv and SRT1720 were collected at 72 hours post-treatment, and 96 hours for all the other compounds.
P. falciparum 3D7 was continuously cultured in human erythrocytes at 4% hematocrit in RPMI 1640 supplemented with 0.5% Albumax II (Invitrogen), […] Hypoxanthine (Sigma) and 20 μg/ml Gentamicin (Invitrogen). Cultures were maintained at 37° C. in an atmosphere of 5% O2, 5% CO2, 90% N2, and synchronized by consecutive treatments of 5% Sorbitol (Sigma), for dose-response analysis, serial dilutions of the compounds were added to synchronized ring-stages of P. falciparum in 96-well plates. Initial parasitemia was set to 0.1% and hematocrit 2%. Parasite replication and reinvasion were assessed at the indicated time by flow cytometry based on fluorescent labelling of P. falciparum DNA. The SYBR Green I (Invitrogen) stained samples were analysed on a CyFlow® SL Blue or Accuri® BD flow cytometer and the data evaluated using FlowJo software (TreeStar) to determine the percentage of infected erythrocytes. IC50 values were calculated using GraphPad Prism.

P. berghei sporozoites [2] = assay: Survival of P. berghei sporozoite-infected mice; format: in vivo, C57BL/6 mice; details: 15-day period
Excerpt: FIG. 6 exemplifies that treatment with AMPK agonists protects P. berghei infected mice from severe malaria, leading to improved survival, C57BL/6 mice were infected and treated as in FIG. 5 (≥10 mice/group; p<0.05).
Example 4. Improved survival of parasite-infected mice treated with AMPK agonists. To determine the effect of the AMPK activators, salicylate and metformin, on animal survival over a 15-day period following parasite infection, C57BL/6 mice were infected by i.d. injection of 5×10^3 P. berghei sporozoites. Salicylate (300 mg/Kg, Sigma No. 71945) was administered by i.p. injection once daily, starting one hour before infection. Metformin (500 mg/Kg. Sigma No D150959) was provided in the drinking water for one week prior to, and during, infection.

P. berghei sporozoites [3] = assay: Relative parasitemia after P. berghei sporozoite (liver-stage) infection of mice; format: in vivo, C57BL/6 mice; details: 72 h.p.i., vs control
Description: Relative parasitemia in C57BL/6 mice that were infected with freshly dissected P. berghei sporozoites, and treated with salicylate or metformin, or maintained under control conditions. Salicylate (300 mg/Kg) was administered by i.p. injection once daily, starting one hour before infection, Metformin (500 mg/Kg) was provided in the drinking water for one week prior and during infection, (≥10 mice/group; each dot represents, one mouse). ***p<0.001; ****p<0.0001.
Parasitemia was determined by flow cytometry analysis (BD FACSCAlibur200 or BD LSRFortessa®) of one drop of tail blood in PBS from C57BL/6 mice that were infected with GFP-expressing P. berghei parasites, and maintained on either AL or CR diets. Analysis on FlowJo® followed. The number of acquired total events ranged from 100-200 thousand. […] The GFP-expressing parasites were detected in the FITC channel. False GFP positive ceils (erythrocyte's auto-fluorescence) were eliminated by plotting FITC against PE.
Relative parasitemia in C57BL/6 mice at 72 hours post infection (h.p.i) with freshly dissected P. berghei sporozoites, was determined by flow cytometry analysis (as described in Example 1) for mice treated with either salicylate or metformin, or maintained under control, untreated conditions. […]

[4] = test system: P. berghei wild-type (wt) and complemented Δkin (Δkin+kin) parasites; assay: In vitro schizont maturation, merozoites per segmented schizont (wild-type and complemented Δkin); format: cell-based, Plasmodium berghei; details: 625 μM, 24 h in vitro, medium with 25% fetal bovine serum
Description: (§1) FIG. 7A exemplifies microscopy analysis and quantification of the number of merozoites per segmented schizont in P. berghei wild-type (wt), Δkin and complemented Δkin (Δkin+kin) parasites. Blood-stage parasites were allowed to mature for 24 hours into schizonts in vitro with medium supplemented with AL and CR sera. KIN is the AMPK homologue in Plasmodium parasites. ****p<0.0001.
(§2) Example 5. The AMPK homologue, KIN, regulates the CR effect in Plasmodium parasites. P. berghei parasite wild-type respond to CR by decreasing the number of daughter merozoites on each cycle. […] The CR effect phenotype can be rescued by reintroducing the kin gene into Δkin parasite line.
(§3) P. berghei blood-stage parasites can be maintained in vitro for only one developmental cycle (20-24 h), in which ring forms develop into mature schizonts, without bursting. Infected blood was obtained from in vivo infections containing mainly ring-stage forms at 1-3% parasitemia. Parasites were cultured in RPMI1640 medium containing 25 mM HEPES, 0.05 mg/ml Gentamicin or Penicillin/Streptomycin (all Gibco/Invitrogen), in 96-well plates. […] Parasite development and the number of merozoites per schizont were then assessed using light microscopy and image (http://rsbweb.nih.gov/ij/). Only mature schizont (segmenters) with clearly separated merozoites were scored.

AMPKα (pAMPKα T172) = assay: Western blot of AMPK phosphorylation in liver homogenates; format: in vivo, C57BL/6 mice; details: non-infected mice, 1 hr after injection, vs vehicle
Excerpt: Western blot analysis of liver homogenates from non-infected mice in AL and DR diets (top panel), and non-infected mice 1 hr after injection of salicylate or vehicle (bottom panel). Lane numbers 1-3 correlate to liver homogenates from individual mice. Representative blot probing with anti-phospho AMPKα (pAMPKα^T172), and -actin antibodies.
Example 2. […] Western blot analysis of AMPK phosphorylation in liver homogenates from non-infected C57BL/6 mice in AL end DR diets, and non-infected mice one hour after injection of salicylate or vehicle. Livers were homogenized in ice-cold lysis buffer (50 mM HEPES, 150 mM NaCl, 10 mM NaF, 1 mM Sodium pyrophosphate, 0.5 mM EDTA, 1 mM DTT, 1% triton, 1 mM Na3VO4, 250 mM Sucrose, protease inhibitor cocktail and phosphatase inhibitors). Total protein content in each homogenate was measured by Bradford Assay (Bio-Rad), according to manufacturer's instructions. 50 μg of total liver lysates were resolved on either 8% SDS-PAGE or Any kD™ Mini-PROTEAN® precast gels (Bio-Rad) and transferred to a nitrocellulose membrane using standard wet transfer with 1× Tris-Glycine buffer containing 20% methanol for 2 hr at 100 V constant or were transferred using iBlot® gel Transfer Stacks (ThermoFisher). […]
pAMPK was detected using rabbit anti-phospho-AMPKα T172 (mAb 40H9.1:1000, Cell Signaling Technology) (incubation for overnight at 4° C). […]

[5] = test system: P. berghei Δkin parasites; assay: In vitro schizont maturation, merozoites per segmented schizont (Δkin); format: cell-based, Plasmodium berghei; details: 24 h in vitro, medium with 25% fetal bovine serum
Description: as §1, §2, §3

[6] = 300 mg/Kg i.p. once daily, starting one hour before infection

Oc1ccc(C=Cc2cc(O)cc(O)c2)cc1 [resveratrol]
pIC50 ([1]; Plasmodium falciparum, 72 hours post-treatment): 4.49

CN(C)C(=N)N=C(N)N [metformin]
Survival rate (P. berghei sporozoites [2]; 500 mg/Kg in drinking water for one week prior to and during infection): significant increases in the survival rates
pIC50 ([1]; Plasmodium falciparum, 96 hours post-treatment): 3.06
Relative parasitemia (liver-stage infection) (P. berghei sporozoites [3]; 500 mg/Kg in drinking water for one week prior and during infection): reduction of P. berghei liver-stage infection

N#Cc1c(O)c2c(-c3ccc(-c4ccccc4O)cc3)csc2[nH]c1=O [A769662]
pIC50 ([1]; 96 hours post-treatment): 4.15

O=C(O)c1ccccc1O [salicylate]
Parasite replication (merozoites per schizont) [4]: reduced parasite replication; also recorded: reduce replication
AMPK phosphorylation (pAMPKα T172) in liver (AMPKα (pAMPKα T172)): activation of AMPK
Parasite replication (merozoites per schizont) [5]: fail to respond
Survival rate (P. berghei sporozoites [2]; [6]): significant increases in the survival rates
pIC50 ([1]; 96 hours post-treatment): 2.89
Relative parasitemia (liver-stage infection) (P. berghei sporozoites [3]; [6]): reduction of P. berghei liver-stage infection

O=C(Nc1ccccc1-c1cn2c(CN3CCNCC3)csc2n1)c1cnc2ccccc2n1 [SRT1720]
pIC50 ([1]; 72 hours post-treatment): 6.10
